Data as given in patent US20240417405A1, “Substituted Spiro Derivatives” (Janssen Pharmaceutica NV, priority 2021, published 2024).

Assays:
MOLM14 cells = assay: Proliferation assay, spheroid-like growth, MOLM14 (MLL-AF9 rearranged); assay type: cell-based, human; conditions: Homo sapiens, MOLM-14, 192 h, 8 days, confluence as measure of spheroid size, read-out: spheroid assay_OneTime MOLM14 IC50
Method in brief: (§1)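 200 MOLM14 or 300 KO-52 cells/well, ultra-low attachment, compound dilutions, DMSO 0.3%; 8 d, 37 °C, 5% CO2. Read: live-cell imaging confluence (spheroid size) day 8. Absolute IC50, min 0%/max 100% fixed, variable slope.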

[1] = molecular target: T1, menin/MLL (terbium chelate-labeled menin, FITC-MBM1 peptide) (Homo sapiens, UniProt O00255, T541A); assay: Menin/MLL homogenous time-resolved fluorescence (HTRF) assay; assay type: binding; conditions: 30 min incubation
T1 construct: Menin (a.a 1-610-6xhis tag)
T1 sequence (O00255 with tags, fused parts or gaps T541A): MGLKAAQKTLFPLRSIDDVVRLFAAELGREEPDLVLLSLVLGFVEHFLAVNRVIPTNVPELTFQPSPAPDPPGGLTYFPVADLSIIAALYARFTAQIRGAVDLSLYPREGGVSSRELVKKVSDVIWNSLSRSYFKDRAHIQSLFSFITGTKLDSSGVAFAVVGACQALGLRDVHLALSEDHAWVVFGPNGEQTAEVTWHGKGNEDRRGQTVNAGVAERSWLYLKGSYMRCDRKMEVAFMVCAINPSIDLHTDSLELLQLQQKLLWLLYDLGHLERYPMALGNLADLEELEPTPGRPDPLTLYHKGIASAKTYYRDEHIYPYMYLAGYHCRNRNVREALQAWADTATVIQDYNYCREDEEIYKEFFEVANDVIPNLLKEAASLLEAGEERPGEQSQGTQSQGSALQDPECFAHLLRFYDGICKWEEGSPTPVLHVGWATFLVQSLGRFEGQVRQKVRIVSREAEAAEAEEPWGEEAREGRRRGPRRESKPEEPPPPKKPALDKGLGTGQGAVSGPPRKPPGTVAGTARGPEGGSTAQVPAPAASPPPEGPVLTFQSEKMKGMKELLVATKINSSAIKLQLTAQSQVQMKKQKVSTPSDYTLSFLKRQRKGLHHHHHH
Method in brief: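 Tb-cryptate menin (1-610, 6xHis) 200 pM + cmpd, 30 min RT; + FITC-MBM1 75 nM, 15 min RT. 40 mM Tris pH 7.5, 50 mM NaCl, 1 mM DTT, 0.05% Pluronic F-127, 0.5% DMSO. HTRF 520/490; 11-pt 4-fold from 10 μM; IC50 fit.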

KO-52 cells = assay: Proliferation assay, spheroid-like growth, KO-52 (MLL wildtype control cell line); assay type: cell-based, human; conditions: Homo sapiens, 192 h, KO-52 control cells, 8 days, confluence as measure of spheroid size; read-out: spheroid assay_OneTime KO-52 IC50
Method in brief: as §1

Compound	IC50 (MOLM14 cells)	IC50 [1]	IC50 (KO-52 cells)
CC(=O)N1CC2(C1)CN([C@H]1C[C@@H]([C@H](C(C)C)N3CC4(CCN(c5ncnnc5Oc5ccc(F)cc5-c5cnc(C)cc5C5CC5)C4)C3)C1)C2 (single isomer, unassigned) [Compound 371]	3 nM	0.15 nM	10100 nM
CC(=O)N1CC2(C1)CN([C@H]1C[C@@H]([C@H](C(C)C)N3CC4(CCN(c5ncnnc5Oc5ccc(F)cc5-c5ncc(C)cc5C5CC5)C4)C3)C1)C2 (single isomer, unassigned) [Compound 373]	7.6 nM	0.77 nM	5410 nM
CC(C)C(C1CCN(CC2COC2)CC1)N1CC2(CCN(c3ncnnc3Oc3ccc(F)cc3-c3cncnc3C3CC3)C2)C1 (stereo not drawn) [Compound 6]	280 nM	0.3 nM	6470 nM
CC(C)C([C@H]1C[C@@H](N2CCC(C#N)CC2)C1)N1CC2(CCN(c3ncnnc3Oc3ccc(F)cc3-c3cncnc3C3CC3)C2)C1 (stereo partly drawn) [Compound 122]	55 nM	0.2 nM	> 15000 nM
CC(C)C([C@H]1C[C@@H](N2CCS(=O)(=O)CC2)C1)N1CC2(CCN(c3ncnnc3Oc3ccc(F)cc3-c3cncnc3C3CC3)C2)C1 (stereo partly drawn) [Compound 123]	1910 nM	5.4 nM	> 15000 nM
COC1CCN([C@H]2C[C@@H](C(C(C)C)N3CC4(CCN(c5ncnnc5Oc5ccc(F)cc5-c5cncnc5C5CC5)C4)C3)C2)CC1 (stereo partly drawn) [Compound 124]	12 nM	0.2 nM	2520 nM
CC(C)C([C@H]1C[C@@H](N2CCC(F)(F)CC2)C1)N1CC2(CCN(c3ncnnc3Oc3ccc(F)cc3-c3cncnc3C3CC3)C2)C1 (stereo partly drawn) [Compound 127]	160 nM	0.5 nM	4660 nM
CC(C)C([C@H]1C[C@H](N2CCC(F)(F)CC2)C1)N1CC2(CCN(c3ncnnc3Oc3ccc(F)cc3-c3cncnc3C3CC3)C2)C1 (stereo partly drawn) [Compound 128]	450 nM	1.3 nM	7890 nM
CC(C)C([C@H]1C[C@@H](N2CCC(C(=O)N(C)C)CC2)C1)N1CC2(CCN(c3ncnnc3Oc3ccc(F)cc3-c3cncnc3C3CC3)C2)C1 (stereo partly drawn) [Compound 131]	50 nM	0.2 nM	6200 nM
CC(C)C([C@H]1C[C@@H](N2CCC(S(C)(=O)=O)CC2)C1)N1CC2(CCN(c3ncnnc3Oc3ccc(F)cc3-c3cncnc3C3CC3)C2)C1 (stereo partly drawn) [Compound 132]	76 nM	0.3 nM	8100 nM
CC(C)C([C@H]1C[C@@H](N2CCCCC2)C1)N1CC2(CCN(c3ncnnc3Oc3ccc(F)cc3-c3cncnc3C3CC3)C2)C1 (stereo partly drawn) [Compound 135]	8 nM	0.3 nM	1000 nM
CC(C)C([C@H]1C[C@@H](N2C[C@H]3COC[C@H]3C2)C1)N1CC2(CCN(c3ncnnc3Oc3ccc(F)cc3-c3cnccc3C3CC3)C2)C1 (stereo partly drawn) [Compound 138]	2 nM	0.1 nM	460 nM
CC(C)C([C@H]1C[C@H](N2C[C@H]3COC[C@H]3C2)C1)N1CC2(CCN(c3ncnnc3Oc3ccc(F)cc3-c3cnccc3C3CC3)C2)C1 (stereo partly drawn) [Compound 139]	41 nM	0.1 nM	1310 nM
CC(C)C([C@H]1C[C@@H](N2C[C@H]3COC[C@H]3C2)C1)N1CC2(CCN(c3ncnnc3Oc3ccc(F)cc3-c3cncc(C#N)c3C3CC3)C2)C1 (stereo partly drawn) [Compound 142]	7 nM	0.1 nM	1350 nM
CC(C)C([C@H]1C[C@H](N2C[C@H]3COC[C@H]3C2)C1)N1CC2(CCN(c3ncnnc3Oc3ccc(F)cc3-c3cncc(C#N)c3C3CC3)C2)C1 (stereo partly drawn) [Compound 143]	27 nM	0.1 nM	1530 nM

Further lines, with some results ahead:

IC50 (MOLM14 cells)	IC50 [1]	Compound	IC50 (KO-52 cells)
3 nM	0.22 nM	CC(=O)Nc1nccc(N[C@H]2C[C@@H]([C@@H](C(C)C)N3CC4(CCN(c5ncnnc5Oc5ccc(F)cc5-c5cncnc5C5CC5)C4)C3)C2)n1 (single isomer, unassigned) [Compound 405]	7570 nM
3 nM	0.17 nM	CC(C)[C@H]([C@H]1C[C@@H](Nc2ncc(C(=O)N(C)C)o2)C1)N1CC2(CCN(c3ncnnc3Oc3ccc(F)cc3-c3cncnc3C3CC3)C2)C1 (single isomer, unassigned) [Compound 435]	2470 nM
9.9 nM	0.36 nM	CNC(=O)c1cnc(N[C@H]2C[C@@H](C(C(C)C)N3CC4(CCN(c5ncnnc5Oc5ccc(F)cc5-c5cncnc5C5CC5)C4)C3)C2)o1 (single isomer, unassigned) [Compound 436]	5970 nM
3.3 nM	0.05 nM	CNC(=O)c1cnc(N[C@H]2C[C@@H]([C@@H](C(C)C)N3CC4(CCN(c5ncnnc5Oc5ccc(F)cc5-c5cncnc5C5CC5)C4)C3)C2)s1 (single isomer, unassigned) [Compound 437]	4700 nM
12 nM	0.29 nM	CCOC(=O)c1cnc(N[C@H]2C[C@@H](C(C(C)C)N3CC4(CCN(c5ncnnc5Oc5ccc(F)cc5-c5cncnc5C5CC5)C4)C3)C2)o1 (single isomer, unassigned) [Compound 478]	1250 nM
530 nM	1.77 nM	CC(C)C([C@H]1C[C@@H](Nc2ncc(C(=O)O)o2)C1)N1CC2(CCN(c3ncnnc3Oc3ccc(F)cc3-c3cncnc3C3CC3)C2)C1 (single isomer, unassigned) [Compound 479]	> 15000 nM
29 nM	0.4 nM	CC(=O)N[C@H]1C[C@@H](C(C(C)C)N2CC3(CCN(c4ncnnc4Oc4ccc(F)cc4-c4cncnc4C4CC4)C3)C2)C1 (stereo partly drawn) [Compound 2]	9040 nM
73 nM	0.3 nM	CC(C)C([C@H]1C[C@@H](N2CCOCC2)C1)N1CC2(CCN(c3ncnnc3Oc3ccc(F)cc3-c3cncnc3C3CC3)C2)C1 (stereo partly drawn) [Compound 120]	> 15000 nM
7 nM	0.1 nM	CC(C)C([C@H]1C[C@@H](N2CCC(O)CC2)C1)N1CC2(CCN(c3ncnnc3Oc3ccc(F)cc3-c3cncnc3C3CC3)C2)C1 (stereo partly drawn) [Compound 121]	2780 nM
12 nM	0.1 nM	CC(C)C([C@H]1C[C@@H](N2CC(O)C2)C1)N1CC2(CCN(c3ncnnc3Oc3ccc(F)cc3-c3cncnc3C3CC3)C2)C1 (stereo partly drawn) [Compound 125]	5300 nM
150 nM	0.4 nM	CC(C)C([C@H]1C[C@H](N2CC(O)C2)C1)N1CC2(CCN(c3ncnnc3Oc3ccc(F)cc3-c3cncnc3C3CC3)C2)C1 (stereo partly drawn) [Compound 126]	14900 nM
11 nM	0.2 nM	CC(C)C([C@H]1C[C@@H](N2CCC(C)(O)CC2)C1)N1CC2(CCN(c3ncnnc3Oc3ccc(F)cc3-c3cncnc3C3CC3)C2)C1 (stereo partly drawn) [Compound 129]	3390 nM
21 nM	0.1 nM	CC(C)C([C@H]1C[C@@H](NCC(C)(C)O)C1)N1CC2(CCN(c3ncnnc3Oc3ccc(F)cc3-c3cncnc3C3CC3)C2)C1 (stereo partly drawn) [Compound 133]	7380 nM
8 nM	0.1 nM	CC(C)C([C@H]1C[C@@H](N(C)C)C1)N1CC2(CCN(c3ncnnc3Oc3ccc(F)cc3-c3cncnc3C3CC3)C2)C1 (stereo partly drawn) [Compound 136]	7070 nM
